According to the supplement of paper PMC5908809:

Assays:
[1] = test system: normal NK cells expanded with K562-aAPC; experiment: percent inhibition of viability; higher = more inhibition; details: 72 h, IL-2 2.5 ng/mL
Protocol: (§1)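 Drug sensitivity and resistance testing on K562-aAPC-expanded normal NK cells: 5 concentrations (10-fold steps over a 10,000-fold range), 72 h at 37 °C, viability by CellTiter-Glo normalised to DMSO and benzethonium chloride controls; DSS from the fitted curve.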

[2] = test system: DERL-7 (IL-2 2.5 ng/mL); experiment: as above; details: 72 h
[3] = test system: IMC-1 (IL-2 20 ng/mL); experiment: as above; details: 72 h
[4] = test system: KAI3 (IL-2 2.5 ng/mL); experiment: as above; details: 72 h
[5] = test system: KHYG-1 (IL-2 2.5 ng/mL); experiment: as above; details: 72 h
[6] = test system: NK-92 (IL-2 2.5 ng/mL); experiment: as above; details: 72 h
[7] = test system: NK-YS (IL-2 2.5 ng/mL); experiment: as above; details: 72 h
[8] = test system: NKL (IL-2 2.5 ng/mL); experiment: as above; details: 72 h
[9] = test system: SNK-6 (IL-2 2.5 ng/mL); experiment: as above; details: 72 h
[10] = test system: YT (IL-2 2.5 ng/mL); experiment: as above; details: 72 h
[11] = test system: normal primary NK cells, pool 1 (3 donors) (IL-2 2.5 ng/mL); experiment: as above; details: 72 h
[12] = test system: normal primary NK cells, pool 1 (3 donors), resting (IL-2 0 ng/mL); experiment: as above; details: 72 h
[13] = test system: normal primary NK cells, pool 2 (3 donors) (IL-2 2.5 ng/mL); experiment: as above; details: 72 h
[14] = test system: normal primary NK cells, pool 3 (3 donors) (IL-2 2.5 ng/mL); experiment: as above; details: 72 h
[15] = test system: normal NK cells expanded with K562-aAPC; experiment: drug sensitivity score (DSS) (DSS units); higher = more sensitive; extreme values may be limits of the assay; details: 72 h; IL-2 2.5 ng/mL
Protocol: as §1

[16] = test system: DERL-7 (IL-2 2.5 ng/mL); experiment: as above; details: 72 h
[17] = test system: IMC-1 (IL-2 20 ng/mL); experiment: as above; details: 72 h
[18] = test system: KAI3 (IL-2 2.5 ng/mL); experiment: as above; details: 72 h
[19] = test system: KHYG-1 (IL-2 2.5 ng/mL); experiment: as above; details: 72 h
[20] = test system: NK-92 (IL-2 2.5 ng/mL); experiment: as above; details: 72 h
[21] = test system: NK-YS (IL-2 2.5 ng/mL); experiment: as above; details: 72 h
[22] = test system: NKL (IL-2 2.5 ng/mL); experiment: as above; details: 72 h
[23] = test system: SNK-6 (IL-2 2.5 ng/mL); experiment: as above; details: 72 h
[24] = test system: YT (IL-2 2.5 ng/mL); experiment: as above; details: 72 h
[25] = test system: normal primary NK cells, pool 1 (3 donors) (IL-2 2.5 ng/mL); experiment: as above; details: 72 h
[26] = test system: normal primary NK cells, pool 1 (3 donors), resting (IL-2 0 ng/mL); experiment: as above; details: 72 h
[27] = test system: normal primary NK cells, pool 2 (3 donors) (IL-2 2.5 ng/mL); experiment: as above; details: 72 h
[28] = test system: normal primary NK cells, pool 3 (3 donors) (IL-2 2.5 ng/mL); experiment: as above; details: 72 h

Oc1ccc2c(c1)CC[C@H](c1ccccc1)[C@@H]2c1ccc(OCCN2CCCC2)cc1 [Lasofoxifene] (max concentration tested 1000 nM)
percent inhibition of viability [%]
Details	0.1 nM	1 nM	10 nM	100 nM	1000 nM
[1]	-6.28	-2.87	-0.97	5.89	14.2
[2]	-2.25	-2.91	-6	-9.21	0.79
[3]	0.35	0.07	4.03	6.29	19.9
[4]	-1.79	-1.38	0	-0.11	15.5
[5]	-2.09	-2.31	1.74	5.02	8.46
[6]	6.27	1.85	5.66	-5.53	1.52
[7]	1.84	-2.69	2.36	-0.77	10.5
[8]	-11.5	-1.59	-8.69	-4.01	-9.81
[9]	4.04	34.2	14.3	17.7	-1.3
[10]	2.75	2.01	2.57	-4.31	1.17
[11]	-0.49	-5.39	5.47	-10.7	0.81
[12]	7.2	-0.67	3.19	-7	6.03
[13]	-15.6	-6.78	-5.24	-11.7	-1.2
[14]	-15.8	-8.59	-8.05	-11	-1.01

Details	drug sensitivity score
[15]	0.59
[16]	0
[17]	0.95
[18]	0.26
[19]	0
[20]	0
[21]	0
[22]	0
[23]	0
[24]	0
[25]	0
[26]	0
[27]	0
[28]	0

C=C1C[C@@H]2[C@H](CC[C@]3(C)C(=O)CC[C@@H]23)[C@@]2(C)C=CC(=O)C=C12 [Exemestane] (max concentration tested 10000 nM)
percent inhibition of viability [%]
Details	1 nM	10 nM	100 nM	1000 nM	10000 nM
[1]	-3.29	-0.41	3.42	12.7	35.6
[2]	-0.04	2.07	-0.5	8.21	26.2
[3]	-4.22	2.93	0.3	7.31	12.9
[4]	0.1	9.66	6.63	5.02	42
[5]	-6.37	13.7	-2.18	12.3	29.8
[6]	-2.32	9.27	5.72	8.66	44.8
[7]	-2.57	3.99	3.16	2.81	18.9
[8]	-3.13	9.66	-3.12	3.19	14.4
[9]	-1.73	3.81	3.19	27.1	40.9
[10]	-3.57	11.7	-3.54	1.89	7.92
[11]	-3.16	-4.6	2.49	-8.32	47.6
[12]	3.47	-11.3	-6.56	-1.56	75.8
[13]	-7.91	-3.9	6.14	2.28	47.6
[14]	-5.22	-9.04	7.22	1.19	30.5

Details	drug sensitivity score
[15]	3.07
[16]	2.16
[17]	0.35
[18]	2.96
[19]	2.88
[20]	3.74
[21]	0.88
[22]	0.48
[23]	5.29
[24]	0
[25]	1.99
[26]	4.06
[27]	2.8
[28]	1.49

Nc1nc(N)c2nc(-c3cccc(O)c3)c(-c3cccc(O)c3)nc2n1 [TG100-115] (max concentration tested 10000 nM)
percent inhibition of viability [%]
Details	1 nM	10 nM	100 nM	1000 nM	10000 nM
[1]	-2.77	-3.08	0.07	6.14	26.9
[2]	-6.88	-4.08	5.03	-4.31	3.35
[3]	-0.94	5.84	4.32	14.9	34.2
[4]	-5.91	4.12	-4.09	-1.44	13.4
[5]	0.48	4.75	4.43	9.36	24.5
[6]	-2.65	1.92	7.95	3.09	17.8
[7]	-1.11	-1.59	0.64	4.73	8.38
[8]	-7.69	-0.08	0.45	6.08	27.7
[9]	0.36	13.3	17.1	53.8	39
[10]	1.25	2.49	4.53	4.76	12.3
[11]	6.61	-12.2	-0.36	-3.46	18.8
[12]	0.41	-21.8	-6.01	-19	16.1
[13]	-11.3	-4.42	12.3	5.35	21.7
[14]	-6.73	-4.4	7.77	-1.79	13.7

Details	drug sensitivity score
[15]	2.01
[16]	0
[17]	2.97
[18]	0
[19]	1.47
[20]	0.35
[21]	0
[22]	2.07
[23]	10.8
[24]	0
[25]	0.36
[26]	0.1
[27]	1.02
[28]	0.09
